In ChEMBL document CHEMBL1158581, “Synthesis and evaluation of new N6-substituted adenosine-5'-N-methylcarboxamides as A3 adenosine receptor agonists” (Bioorg Med Chem, 2010) one finds Ratio Ki, Ki and inhibition data, which are given here for twelve compounds.

One experiment concerns the target Adenosine receptors; A1 & A3 (Homo sapiens) (UniProt P30542+P0DMS8). Put plainly: Selectivity ratio of Ki for human recombinant adenosine A1 receptor to Ki for human recombinant adenosine A3 receptor.
Regarding `CC1(C)NC(C)(C)c2cc(Nc3ncnc4c3ncn4[C@@H]3O[C@H](CO)[C@@H](O)[C@H]3O)ccc21`, the Ratio Ki turned out to be 1.
Turning to `CC(C)(C)c1cc(CCNc2ncnc3c2ncn3[C@@H]2O[C@H](CO)[C@@H](O)[C@H]2O)cc(C(C)(C)C)c1O`, the Ratio Ki came out at 5.
On the same count and under the same terms, the figure for `CNC(=O)[C@H]1O[C@@H](n2cnc3c(Nc4ccc(CCNC(=O)c5ccc6c(c5)C(C)(C)N([O])C6(C)C)cc4)ncnc32)[C@H](O)[C@@H]1O` is 2.1.
The same measure, in the same setting: in the case of `CC1(C)CC(NC2NC=Nc3c2ncn3[C@@H]2O[C@H](CO)[C@@H](O)[C@H]2O)CC(C)(C)N1[O]` (stereo not given in full) it was 0.0058; in that of `CC1(C)c2ccc(CNC3NC=Nc4c3ncn4[C@@H]3O[C@H](CO)[C@@H](O)[C@H]3O)cc2C(C)(C)N1[O]` (stereo not given in full), 4.1.
For `CNC(=O)[C@H]1O[C@@H](n2cnc3c(NC4CC(C)(C)N([O])C(C)(C)C4)ncnc32)[C@H](O)[C@@H]1O`, the Ratio Ki was found to be 0.45.
`CNC(=O)[C@H]1O[C@@H](n2cnc3c(Nc4ccc5c(c4)C(C)(C)N([O])C5(C)C)ncnc32)[C@H](O)[C@@H]1O`: the Ratio Ki was found to be 1.5.
With `CNC(=O)[C@H]1O[C@@H](n2cnc3c(NCc4ccc5c(c4)C(C)(C)N([O])C5(C)C)ncnc32)[C@H](O)[C@@H]1O`, the Ratio Ki is 4.
Same read-out and setting: the figure for `CC1(C)CC(NC2NC=Nc3c2ncn3[C@@H]2O[C@H](CO)[C@@H](O)[C@H]2O)CC(C)(C)N1` (stereo not given in full) is 0.063.
Consider `CNC(=O)[C@H]1O[C@@H](n2cnc3c(NCCc4cc(C(C)(C)C)c(O)c(C(C)(C)C)c4)ncnc32)[C@H](O)[C@@H]1O`, for which the Ratio Ki is 69.

The next experiment has as its target T1, Adenosine receptor A3 (Homo sapiens, UniProt P0DMS8).
T1 sequence (P0DMS8 whole entry): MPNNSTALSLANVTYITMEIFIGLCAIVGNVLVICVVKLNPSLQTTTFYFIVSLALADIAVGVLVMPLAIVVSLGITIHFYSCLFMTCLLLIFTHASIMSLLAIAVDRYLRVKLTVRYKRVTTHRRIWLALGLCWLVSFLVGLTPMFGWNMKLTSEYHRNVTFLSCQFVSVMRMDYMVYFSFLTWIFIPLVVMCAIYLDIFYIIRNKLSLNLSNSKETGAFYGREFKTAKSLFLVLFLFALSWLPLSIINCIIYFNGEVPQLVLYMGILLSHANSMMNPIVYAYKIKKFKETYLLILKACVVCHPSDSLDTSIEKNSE
The experiment is described as follows: Binding affinity to adenosine A3 receptor.
The compound `CC1(C)c2ccc(C(=O)NCCc3ccc(Nc4ncnc5c4ncn5[C@@H]4O[C@H](CO)[C@@H](O)[C@H]4O)cc3)cc2C(C)(C)N1[O]` showed a Ki of 0.007 µM.

For the next experiment, the target named is T1, Adenosine receptor A3. Put plainly: Displacement of [125I]ABA from human recombinant adenosine A3 receptor by rapid filtration technique.
With `CC1(C)NC(C)(C)c2cc(Nc3ncnc4c3ncn4[C@@H]3O[C@H](CO)[C@@H](O)[C@H]3O)ccc21`, the Ki was found to be 0.28 µM.
On the same count and under the same terms, the figure for `CC(C)(C)c1cc(CCNc2ncnc3c2ncn3[C@@H]2O[C@H](CO)[C@@H](O)[C@H]2O)cc(C(C)(C)C)c1O` is 0.03 µM; for `CNC(=O)[C@H]1O[C@@H](n2cnc3c(Nc4ccc(CCNC(=O)c5ccc6c(c5)C(C)(C)N([O])C6(C)C)cc4)ncnc32)[C@H](O)[C@@H]1O` it is 0.025 µM.
Take `CC1(C)CC(NC2NC=Nc3c2ncn3[C@@H]2O[C@H](CO)[C@@H](O)[C@H]2O)CC(C)(C)N1[O]` (stereo not given in full): the inhibition constant (Ki) came to 8.56 µM.
Same read-out and setting: in the case of `CC1(C)c2ccc(CNC3NC=Nc4c3ncn4[C@@H]3O[C@H](CO)[C@@H](O)[C@H]3O)cc2C(C)(C)N1[O]` (stereo not given in full) it was 0.28 µM; in that of `CNC(=O)[C@H]1O[C@@H](n2cnc3c(NC4CC(C)(C)N([O])C(C)(C)C4)ncnc32)[C@H](O)[C@@H]1O`, 4.16 µM.
Still for that read-out and setting: the figure for `CNC(=O)[C@H]1O[C@@H](n2cnc3c(Nc4ccc5c(c4)C(C)(C)N([O])C5(C)C)ncnc32)[C@H](O)[C@@H]1O` is 0.53 µM; for `CNC(=O)[C@H]1O[C@@H](n2cnc3c(NCc4ccc5c(c4)C(C)(C)N([O])C5(C)C)ncnc32)[C@H](O)[C@@H]1O` it is 0.32 µM; for `CNC(=O)[C@H]1O[C@@H](n2cnc3c(NCCc4cc(C(C)(C)C)c(O)c(C(C)(C)C)c4)ncnc32)[C@H](O)[C@@H]1O` it is 0.009 µM.

The target of another experiment is T2, Adenosine receptor A2a (Homo sapiens, UniProt P29274). The experiment is described as follows: Displacement of [3H]ZM241385 from human recombinant adenosine A2A receptor by rapid filtration technique.
T2 sequence (P29274 whole entry): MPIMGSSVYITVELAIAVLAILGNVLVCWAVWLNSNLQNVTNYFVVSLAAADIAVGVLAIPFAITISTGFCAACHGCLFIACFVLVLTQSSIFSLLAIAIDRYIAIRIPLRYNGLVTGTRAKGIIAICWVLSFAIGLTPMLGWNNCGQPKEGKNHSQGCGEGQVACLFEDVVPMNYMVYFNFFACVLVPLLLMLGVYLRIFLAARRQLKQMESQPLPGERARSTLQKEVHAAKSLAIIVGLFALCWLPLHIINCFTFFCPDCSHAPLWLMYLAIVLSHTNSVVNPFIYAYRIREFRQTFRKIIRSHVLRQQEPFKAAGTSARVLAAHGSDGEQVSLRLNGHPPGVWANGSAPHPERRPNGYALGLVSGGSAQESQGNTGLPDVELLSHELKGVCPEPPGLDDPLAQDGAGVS
Take `CC1(C)c2ccc(NC3NC=Nc4c3ncn4[C@@H]3O[C@H](CO)[C@@H](O)[C@H]3O)cc2C(C)(C)N1[O]` (stereo not given in full): the Ki is over 10 µM.
On the same count and under the same terms, the figure for `CC1(C)NC(C)(C)c2cc(Nc3ncnc4c3ncn4[C@@H]3O[C@H](CO)[C@@H](O)[C@H]3O)ccc21` is over 10 µM; for `CNC(=O)[C@H]1O[C@@H](n2cnc3c(Nc4ccc(CCNC(=O)c5ccc6c(c5)C(C)(C)N([O])C6(C)C)cc4)ncnc32)[C@H](O)[C@@H]1O` it is over 10 µM.
Same read-out and setting: the figure for `CC1(C)CC(NC2NC=Nc3c2ncn3[C@@H]2O[C@H](CO)[C@@H](O)[C@H]2O)CC(C)(C)N1[O]` (stereo not given in full) is over 10 µM; for `CC1(C)c2ccc(CNC3NC=Nc4c3ncn4[C@@H]3O[C@H](CO)[C@@H](O)[C@H]3O)cc2C(C)(C)N1[O]` (stereo not given in full) it is over 10 µM.
As to `CNC(=O)[C@H]1O[C@@H](n2cnc3c(NC4CC(C)(C)N([O])C(C)(C)C4)ncnc32)[C@H](O)[C@@H]1O`, the Ki was over 10 µM.
For `CNC(=O)[C@H]1O[C@@H](n2cnc3c(Nc4ccc5c(c4)C(C)(C)N([O])C5(C)C)ncnc32)[C@H](O)[C@@H]1O`, the Ki was over 10 µM.
For `CNC(=O)[C@H]1O[C@@H](n2cnc3c(NCc4ccc5c(c4)C(C)(C)N([O])C5(C)C)ncnc32)[C@H](O)[C@@H]1O`, the Ki is over 10 µM.
Same read-out and setting: in the case of `CNC(=O)[C@H]1O[C@@H](n2cnc3c(NCCc4cc(C(C)(C)C)c(O)c(C(C)(C)C)c4)ncnc32)[C@H](O)[C@@H]1O` it was over 10 µM.

Test system in the next experiment: not listed separately
The experiment is described as follows: Selectivity ratio of Ki for adenosine A1 receptor to Ki for adenosine A3 receptor.
Regarding `CC1(C)c2ccc(C(=O)NCCc3ccc(Nc4ncnc5c4ncn5[C@@H]4O[C@H](CO)[C@@H](O)[C@H]4O)cc3)cc2C(C)(C)N1[O]`, the Ratio Ki amounted to 3.

Another experiment deals with T2, Adenosine receptor A2a. Put plainly: Displacement of [3H]ZM241385 from human recombinant adenosine A2A receptor at 10 uM by rapid filtration technique.
In the case of `CC(C)(C)c1cc(CCNc2ncnc3c2ncn3[C@@H]2O[C@H](CO)[C@@H](O)[C@H]2O)cc(C(C)(C)C)c1O`, the inhibition is 20%.

In another experiment the target is T3, Adenosine receptor A1 (Homo sapiens, UniProt P30542).
T3 sequence (P30542 whole entry): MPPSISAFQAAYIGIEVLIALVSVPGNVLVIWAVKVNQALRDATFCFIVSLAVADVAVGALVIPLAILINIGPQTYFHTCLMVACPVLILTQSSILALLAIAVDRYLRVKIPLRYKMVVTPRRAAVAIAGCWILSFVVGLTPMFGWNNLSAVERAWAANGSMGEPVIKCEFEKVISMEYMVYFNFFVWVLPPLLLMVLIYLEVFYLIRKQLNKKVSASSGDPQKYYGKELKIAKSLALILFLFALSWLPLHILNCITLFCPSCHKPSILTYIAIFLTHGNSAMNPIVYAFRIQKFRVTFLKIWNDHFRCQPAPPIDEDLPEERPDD
The experiment is described as follows: Displacement of [125I]ABA from human recombinant adenosine A1 receptor by rapid filtration technique.
As for `CC1(C)NC(C)(C)c2cc(Nc3ncnc4c3ncn4[C@@H]3O[C@H](CO)[C@@H](O)[C@H]3O)ccc21`, the Ki was determined as 0.29 µM.
Same read-out and setting: the figure for `CC(C)(C)c1cc(CCNc2ncnc3c2ncn3[C@@H]2O[C@H](CO)[C@@H](O)[C@H]2O)cc(C(C)(C)C)c1O` is 0.15 µM; for `CNC(=O)[C@H]1O[C@@H](n2cnc3c(Nc4ccc(CCNC(=O)c5ccc6c(c5)C(C)(C)N([O])C6(C)C)cc4)ncnc32)[C@H](O)[C@@H]1O` it is 0.0531 µM.
As for `CC1(C)CC(NC2NC=Nc3c2ncn3[C@@H]2O[C@H](CO)[C@@H](O)[C@H]2O)CC(C)(C)N1[O]` (stereo not given in full), the Ki was found to be 0.05 µM.
`CC1(C)c2ccc(CNC3NC=Nc4c3ncn4[C@@H]3O[C@H](CO)[C@@H](O)[C@H]3O)cc2C(C)(C)N1[O]` (stereo not given in full): the Ki amounted to 1.14 µM.
Still for that read-out and setting: in the case of `CNC(=O)[C@H]1O[C@@H](n2cnc3c(NC4CC(C)(C)N([O])C(C)(C)C4)ncnc32)[C@H](O)[C@@H]1O` it was 1.89 µM.
Same read-out and setting: in the case of `CNC(=O)[C@H]1O[C@@H](n2cnc3c(Nc4ccc5c(c4)C(C)(C)N([O])C5(C)C)ncnc32)[C@H](O)[C@@H]1O` it was 0.8 µM; in that of `CNC(=O)[C@H]1O[C@@H](n2cnc3c(NCc4ccc5c(c4)C(C)(C)N([O])C5(C)C)ncnc32)[C@H](O)[C@@H]1O`, 1.29 µM; in that of `CNC(=O)[C@H]1O[C@@H](n2cnc3c(NCCc4cc(C(C)(C)C)c(O)c(C(C)(C)C)c4)ncnc32)[C@H](O)[C@@H]1O`, 0.62 µM.
